# From publication PMC4076210, “Discovery of Novel AKT Inhibitors with Enhanced Anti-Tumor Effects in Combination with the MEK Inhibitor” (PLoS ONE, 2014)
# Like-named read-outs stand apart in the source and are kept apart here.
# Assays:
# Test in all cases: Kinase panel
# Assay type in all cases: biochemical
# Axl(h) = target: T1, Axl(h) (Homo sapiens, UniProt P30530)
# T1 construct: purchased Millipore KinaseProfiler
# T1 sequence (P30530 26-894): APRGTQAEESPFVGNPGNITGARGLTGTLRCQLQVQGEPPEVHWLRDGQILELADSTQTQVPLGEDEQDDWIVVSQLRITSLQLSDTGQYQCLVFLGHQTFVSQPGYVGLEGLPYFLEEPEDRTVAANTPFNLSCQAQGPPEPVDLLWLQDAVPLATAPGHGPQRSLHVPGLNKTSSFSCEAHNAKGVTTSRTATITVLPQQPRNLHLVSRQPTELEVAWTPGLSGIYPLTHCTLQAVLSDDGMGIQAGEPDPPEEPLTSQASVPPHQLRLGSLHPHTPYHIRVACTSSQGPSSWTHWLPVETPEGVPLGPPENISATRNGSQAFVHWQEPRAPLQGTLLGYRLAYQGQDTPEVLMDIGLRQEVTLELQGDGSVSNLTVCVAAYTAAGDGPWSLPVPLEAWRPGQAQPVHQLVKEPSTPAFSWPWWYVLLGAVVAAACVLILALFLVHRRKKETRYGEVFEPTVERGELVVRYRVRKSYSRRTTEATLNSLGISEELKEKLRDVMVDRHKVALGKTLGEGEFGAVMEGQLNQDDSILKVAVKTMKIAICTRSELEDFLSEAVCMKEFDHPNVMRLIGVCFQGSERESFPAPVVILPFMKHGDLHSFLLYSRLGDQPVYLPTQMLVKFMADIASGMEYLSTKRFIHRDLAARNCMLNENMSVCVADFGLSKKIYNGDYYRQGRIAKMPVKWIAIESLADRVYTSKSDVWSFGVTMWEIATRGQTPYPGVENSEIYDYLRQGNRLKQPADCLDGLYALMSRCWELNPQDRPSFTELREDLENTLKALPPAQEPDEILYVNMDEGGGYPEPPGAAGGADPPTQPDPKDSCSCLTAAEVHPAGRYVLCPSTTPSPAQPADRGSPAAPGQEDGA
# CDK9/cyclin T1(h) = target: T2, CDK9/cyclin T1(h) (Homo sapiens, UniProt P50750)
# T2 construct: purchased Millipore KinaseProfiler
# MAPKAP-K2(h) = target: T3, MAPKAP-K2(h) (Homo sapiens, UniProt P49137)
# T3 construct: purchased Millipore KinaseProfiler
# PKA(h) = target: T4, PKA(h) (Homo sapiens, UniProt P17612)
# T4 construct: purchased Millipore KinaseProfiler
# TAO1(h) = target: T5, TAO1(h) (Homo sapiens, UniProt Q7L7X3)
# T5 construct: purchased Millipore KinaseProfiler
# T5 sequence (Q7L7X3 1-1001): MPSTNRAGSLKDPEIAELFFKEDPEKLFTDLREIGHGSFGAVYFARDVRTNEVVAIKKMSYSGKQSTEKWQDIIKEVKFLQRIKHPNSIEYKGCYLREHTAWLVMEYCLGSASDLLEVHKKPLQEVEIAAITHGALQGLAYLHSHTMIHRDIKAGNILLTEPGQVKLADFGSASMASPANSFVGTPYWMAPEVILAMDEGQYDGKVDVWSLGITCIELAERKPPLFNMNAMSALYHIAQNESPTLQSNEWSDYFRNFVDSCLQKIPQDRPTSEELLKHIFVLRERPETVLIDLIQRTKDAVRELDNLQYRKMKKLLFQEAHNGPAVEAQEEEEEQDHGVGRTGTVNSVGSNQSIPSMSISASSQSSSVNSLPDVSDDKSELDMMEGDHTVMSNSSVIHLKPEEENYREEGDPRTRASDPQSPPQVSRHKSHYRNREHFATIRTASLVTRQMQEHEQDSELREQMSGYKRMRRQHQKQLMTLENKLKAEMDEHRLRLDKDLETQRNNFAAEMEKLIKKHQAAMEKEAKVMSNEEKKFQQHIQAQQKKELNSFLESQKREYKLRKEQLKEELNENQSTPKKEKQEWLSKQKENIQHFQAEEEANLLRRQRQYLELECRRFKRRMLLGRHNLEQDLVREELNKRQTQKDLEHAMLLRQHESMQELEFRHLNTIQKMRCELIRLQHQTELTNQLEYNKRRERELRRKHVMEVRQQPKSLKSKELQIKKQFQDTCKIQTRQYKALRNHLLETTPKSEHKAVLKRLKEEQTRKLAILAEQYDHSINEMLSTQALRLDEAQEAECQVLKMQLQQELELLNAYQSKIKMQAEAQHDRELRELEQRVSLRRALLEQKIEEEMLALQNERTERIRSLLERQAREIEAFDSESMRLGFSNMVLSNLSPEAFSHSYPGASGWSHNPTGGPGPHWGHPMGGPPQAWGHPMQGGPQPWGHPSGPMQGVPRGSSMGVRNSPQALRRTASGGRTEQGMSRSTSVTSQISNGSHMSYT
# TBK1(h) = target: T6, TBK1(h) (Homo sapiens, UniProt Q9UHD2)
# T6 construct: purchased Millipore KinaseProfiler
# T6 sequence (Q9UHD2 1-729): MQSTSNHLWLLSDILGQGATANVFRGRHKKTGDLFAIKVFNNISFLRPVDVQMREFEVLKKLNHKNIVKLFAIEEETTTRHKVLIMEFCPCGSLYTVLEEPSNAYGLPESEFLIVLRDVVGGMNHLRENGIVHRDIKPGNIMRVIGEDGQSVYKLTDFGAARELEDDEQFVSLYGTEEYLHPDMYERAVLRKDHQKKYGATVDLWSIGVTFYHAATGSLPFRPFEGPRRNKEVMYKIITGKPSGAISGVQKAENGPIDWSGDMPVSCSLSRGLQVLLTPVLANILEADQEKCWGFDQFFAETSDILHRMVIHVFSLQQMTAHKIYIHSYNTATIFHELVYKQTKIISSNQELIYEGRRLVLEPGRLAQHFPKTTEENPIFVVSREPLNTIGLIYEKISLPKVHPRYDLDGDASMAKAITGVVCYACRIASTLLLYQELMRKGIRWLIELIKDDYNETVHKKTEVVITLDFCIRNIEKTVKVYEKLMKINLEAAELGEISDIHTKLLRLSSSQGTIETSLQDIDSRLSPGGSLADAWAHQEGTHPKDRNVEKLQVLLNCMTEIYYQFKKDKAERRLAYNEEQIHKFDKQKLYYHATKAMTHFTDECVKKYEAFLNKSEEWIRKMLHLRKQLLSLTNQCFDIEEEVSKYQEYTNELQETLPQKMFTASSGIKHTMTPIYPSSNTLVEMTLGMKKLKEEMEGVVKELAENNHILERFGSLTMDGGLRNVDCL
# Tie2(R849W)(h) = target: T7, Tie2(R849W)(h) (Homo sapiens, UniProt Q02763, R849W)
# T7 construct: purchased Millipore KinaseProfiler
# T7 sequence (Q02763 23-1124 R849W): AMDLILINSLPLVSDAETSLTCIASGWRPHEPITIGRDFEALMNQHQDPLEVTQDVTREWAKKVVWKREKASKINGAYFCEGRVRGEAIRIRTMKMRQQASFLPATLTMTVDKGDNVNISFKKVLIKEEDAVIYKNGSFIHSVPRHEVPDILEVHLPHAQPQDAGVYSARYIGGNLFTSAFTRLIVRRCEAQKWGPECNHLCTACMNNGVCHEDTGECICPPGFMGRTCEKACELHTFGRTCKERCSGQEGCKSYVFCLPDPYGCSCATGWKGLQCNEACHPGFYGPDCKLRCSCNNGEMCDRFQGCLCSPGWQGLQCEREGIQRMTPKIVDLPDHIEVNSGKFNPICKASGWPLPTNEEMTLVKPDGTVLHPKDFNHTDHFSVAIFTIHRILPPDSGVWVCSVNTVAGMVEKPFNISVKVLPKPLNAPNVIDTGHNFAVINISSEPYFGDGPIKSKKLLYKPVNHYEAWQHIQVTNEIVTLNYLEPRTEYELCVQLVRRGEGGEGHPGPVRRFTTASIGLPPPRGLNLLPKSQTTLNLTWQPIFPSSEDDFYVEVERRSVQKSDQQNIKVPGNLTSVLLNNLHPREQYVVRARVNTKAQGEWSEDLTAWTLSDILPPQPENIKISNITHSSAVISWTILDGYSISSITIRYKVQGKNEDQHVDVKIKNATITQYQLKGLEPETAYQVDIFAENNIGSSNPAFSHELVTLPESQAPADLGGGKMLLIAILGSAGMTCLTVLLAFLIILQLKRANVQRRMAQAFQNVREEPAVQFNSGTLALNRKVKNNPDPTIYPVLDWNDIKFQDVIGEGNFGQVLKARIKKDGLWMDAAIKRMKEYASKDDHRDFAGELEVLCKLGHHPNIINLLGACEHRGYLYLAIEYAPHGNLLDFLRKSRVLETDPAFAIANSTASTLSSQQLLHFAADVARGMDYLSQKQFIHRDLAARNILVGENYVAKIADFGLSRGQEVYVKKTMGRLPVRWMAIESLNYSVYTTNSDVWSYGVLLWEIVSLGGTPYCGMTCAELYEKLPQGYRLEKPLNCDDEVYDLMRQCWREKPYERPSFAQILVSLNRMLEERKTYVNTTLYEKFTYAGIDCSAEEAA
# T2 sequence (P50750 whole entry): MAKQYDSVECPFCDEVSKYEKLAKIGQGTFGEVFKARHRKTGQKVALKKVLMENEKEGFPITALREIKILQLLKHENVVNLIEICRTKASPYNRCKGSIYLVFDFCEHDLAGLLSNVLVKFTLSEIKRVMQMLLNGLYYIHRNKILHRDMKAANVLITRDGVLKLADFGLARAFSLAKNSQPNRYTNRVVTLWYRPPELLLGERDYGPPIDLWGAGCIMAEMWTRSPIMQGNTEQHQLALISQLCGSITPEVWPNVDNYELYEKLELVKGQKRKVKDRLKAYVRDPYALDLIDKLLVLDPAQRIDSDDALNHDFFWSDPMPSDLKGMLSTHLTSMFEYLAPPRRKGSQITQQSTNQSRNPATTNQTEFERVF
# T2 sequence (O60563 whole entry partner): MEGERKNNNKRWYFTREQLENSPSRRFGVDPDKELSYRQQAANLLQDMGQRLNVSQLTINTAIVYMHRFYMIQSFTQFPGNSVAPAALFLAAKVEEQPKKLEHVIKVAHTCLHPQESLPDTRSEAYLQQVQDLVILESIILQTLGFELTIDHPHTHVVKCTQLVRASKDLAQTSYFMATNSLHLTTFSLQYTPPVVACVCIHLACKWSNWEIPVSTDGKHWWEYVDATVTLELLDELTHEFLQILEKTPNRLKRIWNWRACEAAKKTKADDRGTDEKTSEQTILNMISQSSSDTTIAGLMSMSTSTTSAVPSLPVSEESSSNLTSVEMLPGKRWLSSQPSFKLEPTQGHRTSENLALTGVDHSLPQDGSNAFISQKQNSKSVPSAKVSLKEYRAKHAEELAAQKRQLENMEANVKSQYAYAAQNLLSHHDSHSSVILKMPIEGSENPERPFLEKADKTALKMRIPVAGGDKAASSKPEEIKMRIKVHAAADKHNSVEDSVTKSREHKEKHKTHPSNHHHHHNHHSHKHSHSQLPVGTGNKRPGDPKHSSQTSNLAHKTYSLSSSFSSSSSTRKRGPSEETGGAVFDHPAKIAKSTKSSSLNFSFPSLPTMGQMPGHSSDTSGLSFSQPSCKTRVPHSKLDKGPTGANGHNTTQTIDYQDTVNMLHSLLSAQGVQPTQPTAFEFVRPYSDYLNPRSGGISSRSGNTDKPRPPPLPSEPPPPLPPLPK
# T3 sequence (P49137 whole entry): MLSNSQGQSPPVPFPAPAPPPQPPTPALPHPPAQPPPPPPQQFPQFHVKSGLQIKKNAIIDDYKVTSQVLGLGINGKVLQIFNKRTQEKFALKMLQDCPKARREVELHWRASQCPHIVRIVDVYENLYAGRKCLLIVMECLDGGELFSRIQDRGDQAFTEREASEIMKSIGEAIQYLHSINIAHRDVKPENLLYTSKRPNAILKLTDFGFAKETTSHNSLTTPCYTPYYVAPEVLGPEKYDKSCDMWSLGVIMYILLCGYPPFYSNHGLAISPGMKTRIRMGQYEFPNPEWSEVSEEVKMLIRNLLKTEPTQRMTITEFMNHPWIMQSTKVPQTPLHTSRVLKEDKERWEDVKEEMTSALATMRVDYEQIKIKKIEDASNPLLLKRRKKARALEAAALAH
structure (smiles),measurement,setting,value
Cn1ncc(Cl)c1-c1cc(C(=O)N[C@H](CN)Cc2cccc(F)c2)sc1Cl [GSK2110183],inhibition at 0.5 µM,Axl(h),6%
same,inhibition at 10 µM,Axl(h),37%
same,inhibition at 0.5 µM,CDK9/cyclin T1(h),0%
same,inhibition at 10 µM,CDK9/cyclin T1(h),48%
same,inhibition at 0.5 µM,MAPKAP-K2(h),-11%
same,inhibition at 10 µM,MAPKAP-K2(h),4%
same,inhibition at 0.5 µM,PKA(h),94%
same,inhibition at 10 µM,PKA(h),96%
same,inhibition at 0.5 µM,TAO1(h),15%
same,inhibition at 10 µM,TAO1(h),49%
same,inhibition at 0.5 µM,TBK1(h),1%
same,inhibition at 10 µM,TBK1(h),2%
same,inhibition at 0.5 µM,Tie2(R849W)(h),-8%
same,inhibition at 10 µM,Tie2(R849W)(h),-9%
Cn1ncc(Cl)c1-c1cc(C(=O)N[C@H](CN)Cc2ccc(F)c(F)c2)oc1Cl [GSK2141795],inhibition at 0.5 µM,"Axl(h); 0.5 µM, read-out: % Inhibition",-2%
same,inhibition at 10 µM,"Axl(h); 10 µM, read-out: % Inhibition",-6%
same,inhibition at 0.5 µM,"CDK9/cyclin T1(h); 0.5 µM, read-out: % Inhibition",15%
same,inhibition at 10 µM,"CDK9/cyclin T1(h); 10 µM, read-out: % Inhibition",72%
same,inhibition at 0.5 µM,"MAPKAP-K2(h); 0.5 µM, read-out: % Inhibition",-6%
same,inhibition at 10 µM,"MAPKAP-K2(h); 10 µM, read-out: % Inhibition",-12%
same,inhibition at 0.5 µM,"PKA(h); 0.5 µM, read-out: % Inhibition",99%
same,inhibition at 10 µM,"PKA(h); 10 µM, read-out: % Inhibition",97%
same,inhibition at 0.5 µM,"TAO1(h); 0.5 µM, read-out: % Inhibition",-4%
same,inhibition at 10 µM,"TAO1(h); 10 µM, read-out: % Inhibition",24%
same,inhibition at 0.5 µM,"TBK1(h); 0.5 µM, read-out: % Inhibition",1%
same,inhibition at 10 µM,"TBK1(h); 10 µM, read-out: % Inhibition",4%
same,inhibition at 0.5 µM,"Tie2(R849W)(h); 0.5 µM, read-out: % Inhibition",-8%
same,inhibition at 10 µM,"Tie2(R849W)(h); 10 µM, read-out: % Inhibition",11%
